Test results published in ChEMBL document CHEMBL4483862, “Open-source discovery of chemical leads for next-generation chemoprotective antimalarials” (2018).

Test system: Plasmodium berghei
Assay: Luciferase/luciferin-expressing antifolate-resistant parasites were used to infect a culture of HepG2 cells that were pre-incubated with compounds. Infected hepatocytes emit light due to the luciferase reaction. Assay results are presented as the percent inhibition of light emission compared to control. […]
Type: functional
Settings: sporozoite; for IC90: read-out: LUCIFERASE INFECTION ASSAY - IC90

In the case of Cc1ccc(S(=O)(=O)Nc2cccc3ncccc23)s1, the IC50 (HEPG2TOX_HILL_SLOPE 1.87, HEPG2TOX_R_SQUARED 0.954, PBLUC_HILL_SLOPE 8.9, PBLUC_R_SQUARED 0.583, read-out: LUCIFERASE INFECTION ASSAY - IC50) is reported as 2.91 µM and the IC90 is reported as 3.72 µM.

O=C(Nc1cc(Cl)cc(Cl)c1)c1cc(Cl)ccc1O showed an IC50 (HEPG2TOX_HILL_SLOPE 1.87, HEPG2TOX_R_SQUARED 0.915, PBLUC_HILL_SLOPE 2.8, PBLUC_R_SQUARED 0.713, read-out: LUCIFERASE INFECTION ASSAY - IC50) of 0.502 µM and an IC90 of 1.1 µM.

CO/N=C(/CS(=O)(=O)c1ccc(Cl)cc1)c1ccc(Cl)cc1 gave an IC50 (HEPG2TOX_HILL_SLOPE 1.88, HEPG2TOX_R_SQUARED 0.932, PBLUC_HILL_SLOPE 2.15, PBLUC_R_SQUARED 0.742, read-out: LUCIFERASE INFECTION ASSAY - IC50) of 1.17 µM and an IC90 of 3.25 µM.

CN(C)c1ccc(-c2ccc3nnc(-c4ccccc4)n3c2)cc1 showed an IC50 (HEPG2TOX_HILL_SLOPE 1.89, HEPG2TOX_R_SQUARED 0.955, PBLUC_HILL_SLOPE 2.66, PBLUC_R_SQUARED 0.575, read-out: LUCIFERASE INFECTION ASSAY - IC50) of 2.01 µM and an IC90 of 4.59 µM.

Molecule COc1cc(C)ccc1Oc1nc2cc(C)nn2c2ccccc12 has an IC50 (HEPG2TOX_HILL_SLOPE 1.87, HEPG2TOX_R_SQUARED 0.892, read-out: LUCIFERASE INFECTION ASSAY - IC50) greater than 10 µM and an IC90 greater than 10 µM.

For CC(=O)Nc1ccc(-c2cnc3ccc(-c4cccs4)nn23)cc1, the IC50 (HEPG2TOX_HILL_SLOPE 1.84, HEPG2TOX_R_SQUARED 0.871, PBLUC_HILL_SLOPE 5.5, PBLUC_R_SQUARED 0.751, read-out: LUCIFERASE INFECTION ASSAY - IC50) was 1.84 µM and the IC90 was 2.75 µM.

Work on Cc1nccc(-c2cccc(N/N=C(\C#N)S(=O)(=O)c3ccccn3)c2)n1 yielded an IC50 (HEPG2TOX_HILL_SLOPE 1.84, HEPG2TOX_R_SQUARED 0.959, PBLUC_HILL_SLOPE 1.78, PBLUC_R_SQUARED 0.641, read-out: LUCIFERASE INFECTION ASSAY - IC50) of 2.4 µM and an IC90 of 8.23 µM.

In the case of Cc1nc(NCc2ccc(-n3ccnc3)nc2)c2c(-c3ccccc3)csc2n1, the IC50 (HEPG2TOX_HILL_SLOPE 1.9, HEPG2TOX_R_SQUARED 0.893, PBLUC_HILL_SLOPE 8.93, PBLUC_R_SQUARED 0.705, read-out: LUCIFERASE INFECTION ASSAY - IC50) is reported as 3.15 µM and the IC90 is reported as 4.03 µM.

Work on COc1cccc(C(=O)Nc2nc3ccc(C)cn3c2C(=O)NC2CCCC2)c1 yielded an IC50 (HEPG2TOX_HILL_SLOPE 1.86, HEPG2TOX_R_SQUARED 0.913, PBLUC_HILL_SLOPE 11.1, PBLUC_R_SQUARED 0.319, read-out: LUCIFERASE INFECTION ASSAY - IC50) of 2.59 µM and an IC90 of 3.16 µM.

CCCCc1ccc(C(=O)Nc2nc3ccc(C)cn3c2C(=O)NCCC)cc1 showed an IC50 (HEPG2TOX_HILL_SLOPE 1.88, HEPG2TOX_R_SQUARED 0.855, PBLUC_HILL_SLOPE 16.2, PBLUC_R_SQUARED 0.661, read-out: LUCIFERASE INFECTION ASSAY - IC50) of 2.78 µM and an IC90 of 3.18 µM.

With Cc1nn2c(nc(N3CCCC3)c3ccccc32)c1C=C1C(=O)NC(=S)NC1=O the IC50 (HEPG2TOX_HILL_SLOPE 1.87, HEPG2TOX_R_SQUARED 0.941, PBLUC_HILL_SLOPE 2.44, PBLUC_R_SQUARED 0.519, read-out: LUCIFERASE INFECTION ASSAY - IC50) was 2.16 µM and the IC90 was 5.31 µM.

For c1csc(CNc2ccc3ncc(-c4ccc5[nH]ccc5c4)n3n2)c1, the IC50 (HEPG2TOX_HILL_SLOPE 1.89, HEPG2TOX_R_SQUARED 0.971, PBLUC_HILL_SLOPE 2.39, PBLUC_R_SQUARED 0.271, read-out: LUCIFERASE INFECTION ASSAY - IC50) was 4.86 µM and the IC90 was greater than 9.55 µM.

CCO/C=N\C1=C(C#N)C(c2ccc(OC)cc2)c2ccc3ccccc3c2O1 (configuration not stated) was tested, and the IC50 (HEPG2TOX_HILL_SLOPE 1.86, HEPG2TOX_R_SQUARED 0.624, read-out: LUCIFERASE INFECTION ASSAY - IC50) was greater than 8.58 µM and the IC90 was greater than 8.58 µM.

CCOC(=O)CCc1c(C)[nH]n(-c2nc3ccccc3[nH]2)c1=O showed an IC50 (HEPG2TOX_HILL_SLOPE 1.88, HEPG2TOX_R_SQUARED 0.728, PBLUC_HILL_SLOPE 14.3, PBLUC_R_SQUARED 0.719, read-out: LUCIFERASE INFECTION ASSAY - IC50) of 3.03 µM and an IC90 of 3.53 µM.

Work on CC(=O)c1ccccc1NC(=O)COC(=O)c1c2c(nc3ccccc13)CCC2 yielded an IC50 (HEPG2TOX_HILL_SLOPE 1.9, HEPG2TOX_R_SQUARED 0.384, PBLUC_HILL_SLOPE 3.75, PBLUC_R_SQUARED 0.218, read-out: LUCIFERASE INFECTION ASSAY - IC50) of 6.16 µM and an IC90 greater than 10 µM.

Work on CCN(CC)CCN1COc2c(cc(Cl)c3cccnc23)C1 yielded an IC50 (HEPG2TOX_HILL_SLOPE 1.86, HEPG2TOX_R_SQUARED 0.951, PBLUC_HILL_SLOPE 8.52, PBLUC_R_SQUARED 0.457, read-out: LUCIFERASE INFECTION ASSAY - IC50) of 3.81 µM and an IC90 of 4.94 µM.

For O=C(Nc1ccc(-c2nc3ccccc3[nH]2)cc1)c1ccc(NC(=O)C2CC2)s1, the IC50 (HEPG2TOX_HILL_SLOPE 1.89, HEPG2TOX_R_SQUARED 0.991, PBLUC_HILL_SLOPE 4.29, PBLUC_R_SQUARED 0.909, read-out: LUCIFERASE INFECTION ASSAY - IC50) was 0.404 µM and the IC90 was 0.674 µM.

Clc1ccc(-c2cn3c(-c4ccccc4)cnc3cn2)c(Cl)c1 gave an IC50 (HEPG2TOX_HILL_SLOPE 1.88, HEPG2TOX_R_SQUARED 0.996, PBLUC_HILL_SLOPE 1.95, PBLUC_R_SQUARED 0.542, read-out: LUCIFERASE INFECTION ASSAY - IC50) of 1.19 µM and an IC90 of 3.69 µM.

Cn1cc(-c2cnc3cnc(-c4ccsc4)cn23)cn1 was tested, and the IC50 (HEPG2TOX_HILL_SLOPE 1.9, HEPG2TOX_R_SQUARED 0.409, PBLUC_HILL_SLOPE 1.49, PBLUC_R_SQUARED 0.155, read-out: LUCIFERASE INFECTION ASSAY - IC50) was greater than 11.7 µM and the IC90 was greater than 11.7 µM.

With COc1ccc(-n2nc(C)c3c(=O)cc(C(C)(C)C)[nH]c32)cc1 the IC50 (HEPG2TOX_HILL_SLOPE 1.9, HEPG2TOX_R_SQUARED 0.976, PBLUC_HILL_SLOPE 7.24, PBLUC_R_SQUARED 0.294, read-out: LUCIFERASE INFECTION ASSAY - IC50) was 4.29 µM and the IC90 was 5.81 µM.

For O=c1nc(-c2ccc3c(c2)OCCO3)[nH]c2sc(-c3ccccc3)cc12, the IC50 (HEPG2TOX_HILL_SLOPE 1.86, HEPG2TOX_R_SQUARED 0.902, PBLUC_HILL_SLOPE 1.77, PBLUC_R_SQUARED 0.594, read-out: LUCIFERASE INFECTION ASSAY - IC50) was 1.25 µM and the IC90 was 4.31 µM.

Work on CCOC(=O)c1ccc(NC(=S)N/N=C/c2ccccc2O)cc1 yielded an IC50 (HEPG2TOX_HILL_SLOPE 1.84, HEPG2TOX_R_SQUARED 0.879, PBLUC_HILL_SLOPE 113, PBLUC_R_SQUARED 0.459, read-out: LUCIFERASE INFECTION ASSAY - IC50) of 5.6 µM and an IC90 of 5.71 µM.

Work on Cc1ccnc(NC(=O)C2CC(=O)N(c3ccc(C)c(C)c3)C2)c1 (configuration not stated) yielded an IC50 (HEPG2TOX_HILL_SLOPE 1.86, HEPG2TOX_R_SQUARED 0.878, PBLUC_HILL_SLOPE 11.1, PBLUC_R_SQUARED 0.462, read-out: LUCIFERASE INFECTION ASSAY - IC50) of 3.31 µM and an IC90 of 4.04 µM.

CC1CC(C)CN(Cc2ccccc2CNC(=O)Nc2nnc(C3CC3)s2)C1 (configuration not stated) gave an IC50 (HEPG2TOX_HILL_SLOPE 1.87, HEPG2TOX_R_SQUARED 0.778, PBLUC_HILL_SLOPE 3.71, PBLUC_R_SQUARED 0.683, read-out: LUCIFERASE INFECTION ASSAY - IC50) of 6.46 µM and an IC90 greater than 10 µM.

Cc1cccc(C(=O)N[C@H](C(=O)Nc2nc(-c3ccccn3)cs2)C(C)C)c1 showed an IC50 (HEPG2TOX_HILL_SLOPE 1.86, HEPG2TOX_R_SQUARED 0.615, PBLUC_HILL_SLOPE 3.31, PBLUC_R_SQUARED 0.556, read-out: LUCIFERASE INFECTION ASSAY - IC50) of 2.03 µM and an IC90 of 3.94 µM.

Work on O=C(NCCO)c1cccc(-c2ccc3ncc(-c4cccc(CO)c4)n3n2)c1 yielded an IC50 (HEPG2TOX_HILL_SLOPE 1.86, HEPG2TOX_R_SQUARED 0.81, PBLUC_HILL_SLOPE 12.7, PBLUC_R_SQUARED 0.352, read-out: LUCIFERASE INFECTION ASSAY - IC50) of 3.09 µM and an IC90 of 3.67 µM.

CC(=O)c1cccc(-c2cnc3ccc(-c4cccc(C(=O)NCCO)c4)nn23)c1 was tested, and the IC50 (HEPG2TOX_HILL_SLOPE 1.87, HEPG2TOX_R_SQUARED 0.674, PBLUC_HILL_SLOPE 4.19, PBLUC_R_SQUARED 0.651, read-out: LUCIFERASE INFECTION ASSAY - IC50) was 1.38 µM and the IC90 was 2.32 µM.

Cc1ccc(-c2nc(COC(=O)Cc3ccccc3[N+](=O)[O-])cs2)cc1 gave an IC50 (HEPG2TOX_HILL_SLOPE 1.86, HEPG2TOX_R_SQUARED 0.968, PBLUC_HILL_SLOPE 3.1, PBLUC_R_SQUARED 0.491, read-out: LUCIFERASE INFECTION ASSAY - IC50) of 6.23 µM and an IC90 greater than 10 µM.

With Cc1sc2nc(-c3cccnc3)nc(NCCNc3ccccn3)c2c1C the IC50 (HEPG2TOX_HILL_SLOPE 1.88, HEPG2TOX_R_SQUARED 0.918, PBLUC_HILL_SLOPE 8.99, PBLUC_R_SQUARED 0.794, read-out: LUCIFERASE INFECTION ASSAY - IC50) was 1.34 µM and the IC90 was 1.71 µM.

In the case of Cc1cc(C(=O)Cn2cnc3ccccc3c2=O)c(C)n1-c1ccccc1F, the IC50 (HEPG2TOX_HILL_SLOPE 1.86, HEPG2TOX_R_SQUARED 0.464, PBLUC_HILL_SLOPE 1.21, PBLUC_R_SQUARED 0.574, read-out: LUCIFERASE INFECTION ASSAY - IC50) is reported as 3.66 µM and the IC90 is reported as greater than 10 µM.

CNC(=O)c1csc(C(O)c2cccc(C(F)(F)F)c2)n1 (configuration not stated) was tested, and the IC50 (HEPG2TOX_HILL_SLOPE 1.87, HEPG2TOX_R_SQUARED 0.885, PBLUC_HILL_SLOPE 18.2, PBLUC_R_SQUARED 0.279, read-out: LUCIFERASE INFECTION ASSAY - IC50) was 3.38 µM and the IC90 was 3.81 µM.
